Measured values reported in patent publication US9023318B2, “Compounds with matrix-metalloproteinase inhibitory activity and imaging agents thereof” (Siemens Medical Solutions USA, Inc., priority 2011, dated 2015).

Legend:
recombinant MMP-8 = recombinant MMP-8 (Homo sapiens, UniProt P22894); assay: MMP compound screening, recombinant MMP-8 (SensoLyte 390 Generic MMP Activity Kit); format: biochemical; conditions: read-out: inhibition of MMP-8 activity, % of total activity; for inhibition at 0.01 µM: 10 nM compound; for inhibition at 0.1 µM: 100 nM (0.1 uM) compound
recombinant MMP-8, sequence (P22894 101-467, species assumed): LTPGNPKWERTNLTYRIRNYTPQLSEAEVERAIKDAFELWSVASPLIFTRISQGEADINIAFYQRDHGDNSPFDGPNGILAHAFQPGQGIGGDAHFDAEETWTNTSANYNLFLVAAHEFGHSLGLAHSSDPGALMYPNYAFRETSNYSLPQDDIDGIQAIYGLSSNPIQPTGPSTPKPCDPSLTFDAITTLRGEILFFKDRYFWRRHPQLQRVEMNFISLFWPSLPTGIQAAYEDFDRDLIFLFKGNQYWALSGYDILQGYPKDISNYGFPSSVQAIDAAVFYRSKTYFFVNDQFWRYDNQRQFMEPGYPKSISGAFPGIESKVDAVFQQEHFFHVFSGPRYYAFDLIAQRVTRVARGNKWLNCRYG
Procedure: (§1) The activities were determined using Fluorimetric SensoLyte® 390 Generic MMP Activity Kit from Anaspec (cat #72202). This assay kit can detect the activity of several MMPs such as MMP-1, 2, 7, 8, 9, 13, 14, 15, 16 and 24.
(§2) For screening MMP compounds, activated 2 nM of recombinant MMP-2, 8, 9 or 13 are pre-incubated with MMP compound (inhibitor) for 30 min at 37° C. The substrate is added and the inhibition of MMP activity is expressed as % of total activity (without the inhibitor incubation).

recombinant MMP-9 = recombinant MMP-9 (Homo sapiens, UniProt P14780); assay: MMP compound screening, recombinant MMP-9 (SensoLyte 390 Generic MMP Activity Kit); format: biochemical; conditions: for inhibition at 0.01 µM: 10 nM compound
recombinant MMP-9, sequence (P14780 107-707 limits assumed, species assumed): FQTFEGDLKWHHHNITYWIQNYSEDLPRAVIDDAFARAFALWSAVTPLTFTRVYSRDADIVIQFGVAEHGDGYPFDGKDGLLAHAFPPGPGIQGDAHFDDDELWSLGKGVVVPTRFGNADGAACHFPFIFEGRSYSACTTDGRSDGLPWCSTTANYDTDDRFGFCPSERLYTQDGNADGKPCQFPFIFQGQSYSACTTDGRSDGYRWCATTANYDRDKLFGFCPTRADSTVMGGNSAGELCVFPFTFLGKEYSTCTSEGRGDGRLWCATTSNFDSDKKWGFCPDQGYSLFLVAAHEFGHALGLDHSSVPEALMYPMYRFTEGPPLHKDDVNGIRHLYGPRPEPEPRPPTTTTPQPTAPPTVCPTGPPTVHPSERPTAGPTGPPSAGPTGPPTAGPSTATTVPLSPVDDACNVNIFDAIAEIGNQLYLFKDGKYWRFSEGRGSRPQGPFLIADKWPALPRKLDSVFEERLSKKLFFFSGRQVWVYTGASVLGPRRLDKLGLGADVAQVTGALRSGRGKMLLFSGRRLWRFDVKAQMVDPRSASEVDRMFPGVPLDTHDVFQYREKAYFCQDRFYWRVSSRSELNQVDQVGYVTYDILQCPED
Procedure: as §1, §2

recombinant MMP-2 = target: T1, recombinant MMP-2 (Homo sapiens, UniProt P08253); assay: MMP compound screening, recombinant MMP-2 (SensoLyte 390 Generic MMP Activity Kit); format: biochemical; conditions: for inhibition at 0.01 µM: 10 nM compound; for IC50: 2 nM enzyme, 30 min pre-incubation at 37° C.
T1 sequence (P08253 110-660): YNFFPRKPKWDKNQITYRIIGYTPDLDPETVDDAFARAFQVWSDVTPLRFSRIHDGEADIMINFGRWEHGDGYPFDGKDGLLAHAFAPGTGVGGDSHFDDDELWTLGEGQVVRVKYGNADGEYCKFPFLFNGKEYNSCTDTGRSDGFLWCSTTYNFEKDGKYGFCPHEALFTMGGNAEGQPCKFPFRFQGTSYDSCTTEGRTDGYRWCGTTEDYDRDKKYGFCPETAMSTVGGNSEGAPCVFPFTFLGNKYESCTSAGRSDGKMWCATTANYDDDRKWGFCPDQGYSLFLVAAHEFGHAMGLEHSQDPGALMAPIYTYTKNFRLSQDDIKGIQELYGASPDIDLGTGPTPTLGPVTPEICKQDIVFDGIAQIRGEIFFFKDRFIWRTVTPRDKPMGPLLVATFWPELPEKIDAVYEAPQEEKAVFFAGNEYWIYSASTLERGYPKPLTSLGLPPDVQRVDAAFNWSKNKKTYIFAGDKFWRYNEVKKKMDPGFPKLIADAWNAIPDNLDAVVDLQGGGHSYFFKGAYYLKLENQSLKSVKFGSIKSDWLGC
Procedure: as §1, §2

recombinant MMP-13 = recombinant MMP-13 (Homo sapiens, UniProt P45452); assay: MMP compound screening, recombinant MMP-13 (SensoLyte 390 Generic MMP Activity Kit); format: biochemical; conditions: read-out: inhibition of MMP-13 activity, % of total activity; for inhibition at 0.01 µM: 10 nM compound; for inhibition at 0.1 µM: 100 nM (0.1 uM) compound
Procedure: as §1, §2

MMP = MMP inhibition, general statement; format: biochemical
Procedure: as §1, §2

[1] = Biodistribution of M005: tumor and tissue fluorescence scans; format: in vivo, mouse; conditions: 4 h uptake time, Cy5 channel
Procedure: FIGS. 3-5 are mouse scans before and 4 hours after […] injection.

[2] = read-out: inhibition of MMP-9 activity, % of total activity
[3] = read-out: inhibition of MMP-2 activity, % of total activity

| SMILES | inhibition at 0.01 µM (recombinant MMP-8) [%] | inhibition at 0.01 µM (recombinant MMP-9; [2]) [%] | inhibition at 0.01 µM (recombinant MMP-2; [3]) [%] | inhibition at 0.01 µM (recombinant MMP-13) [%] | inhibition at 0.1 µM (recombinant MMP-8) [%] | inhibition at 0.1 µM (recombinant MMP-13) [%] | IC50 (recombinant MMP-2) [nM] | also measured |
| --- | --- | --- | --- | --- | --- | --- | --- | --- |
| COc1ccc(S(=O)(=O)N(Cc2cn(CCOCCOCCOCCNC(=O)CCC(NC(=O)Cn3cc(CCCF)nn3)C(=O)NCCOCCOCCOCCn3cc(CN([C@@H](C(=O)NOC(C)(C)C)C(C)C)S(=O)(=O)c4ccc(OC)cc4)nn3)nn2)[C@@H](C(=O)NO)C(C)C)cc1 (some centres unmarked) [M010] | 13 | 2 | 28 | 10 |  |  |  |  |
| COc1ccc(S(=O)(=O)N(Cc2cn(CCOCCn3cc(CCCF)nn3)nn2)[C@@H](C(=O)NO)C(C)C)cc1 [M008] | 95 | 78 | 82 | 82 |  |  |  |  |
| COc1ccc(S(=O)(=O)N(Cc2cn(CCOCCn3cc(CN([C@@H](C(=O)NO)C(C)C)S(=O)(=O)c4ccc(OC)cc4)nn3)nn2)[C@H](C(=O)NO)C(C)C)cc1 [M007] | 94 | 89 | 64 | 96 | 100 | 99 |  | inhibition at 0.1 µM (recombinant MMP-9; 100 nM (0.1 uM) compound, read-out: inhibition of MMP-9 activity, % of total activity): 100%; inhibition at 0.1 µM (recombinant MMP-2; 100 nM (0.1 uM) compound, read-out: inhibition of MMP-2 activity, % of total activity): 95%; MMP inhibition (in words) (MMP): good MMP inhibition |
| COc1ccc(S(=O)(=O)N(Cc2cn(CCOCCNC(=O)c3cc(C(=O)NCCOCCn4cc(CN([C@@H](C(=O)NO)C(C)C)S(=O)(=O)c5ccc(OC)cc5)nn4)cc(-n4cc(CCCF)nn4)c3)nn2)[C@H](C(=O)NO)C(C)C)cc1 [M011] | 57 | 55 | 50 | 75 |  |  |  |  |
| COc1ccc(S(=O)(=O)N(Cc2cn(CCOCCOCCOCCNC(=O)CCCCC[N+]3=C(/C=C/C=C/C=C4\N(C)c5ccc6ccccc6c5C4(C)C)C(C)(C)c4c3ccc3ccccc43)nn2)[C@@H](C(=O)NO)C(C)C)cc1 [M004] |  |  |  |  | 83 | 91 | 25 |  |
| COc1ccc(S(=O)(=O)N(Cc2cn(CCOCCNC(=O)c3cc(C(=O)O)cc(-n4cc(CCCF)nn4)c3)nn2)[C@@H](C(=O)NO)C(C)C)cc1 [M013] | 84 | 67 | 66 | 79 |  |  |  |  |
| COc1ccc(-c2cn(CCN([C@@H](C(=O)NO)C(C)C)S(=O)(=O)c3ccc(OC)cc3)nn2)cc1 [M001] |  |  |  |  | 92 | 99 |  |  |
| COc1ccc(S(=O)(=O)N(Cc2cn(CCOCCOCCOCCNC(=O)CCC(NC(=O)Cn3cc(CCCF)nn3)C(=O)NCCOCCOCCOCCn3cc(CN([C@@H](C(=O)NO)C(C)C)S(=O)(=O)c4ccc(OC)cc4)nn3)nn2)[C@@H](C(=O)NO)C(C)C)cc1 (some centres unmarked) [M009] | 46 |  | 59 | 64 |  |  |  | inhibition of MMP-9 activity, % of total activity (recombinant MMP-9; concentration not given): 48% |
| CCN1\C(=C/C=C/C=C/C2=[N+](CCCCCC(=O)NCCOCCOCCOCCn3cc(CN([C@@H](C(=O)NO)C(C)C)S(=O)(=O)c4ccc(OC)cc4)nn3)c3ccc4c(S(=O)(=O)O)cc(S(=O)(=O)[O-])cc4c3C2(C)C)C(C)(C)c2c1ccc1c(S(=O)(=O)O)cc(S(=O)(=O)O)cc21 [M003] |  |  |  |  | 97 | 97 | 5.2 |  |
| CCN1C(=CC=CC=CC2=[N+](CCCCCC(=O)NCCCCC(NC(=O)Cn3cc(CCCF)nn3)C(=O)NCCOCCOCCOCCn3cc(CN(C(C(=O)NO)C(C)C)S(=O)(=O)c4ccc(OC)cc4)nn3)c3ccc4c(S(=O)(=O)O)cc(S(=O)(=O)[O-])cc4c3C2(C)C)C(C)(C)c2c1ccc1c(S(=O)(=O)O)cc(S(=O)(=O)O)cc21 (centres unmarked) [M005] |  |  |  |  |  |  | 2 | IC50 (recombinant MMP-9; 2 nM enzyme, 30 min pre-incubation at 37° C.): 2.1 nM; uptake in tumor and tissue (fluorescence) ([1]; with and without tracer injection): uptake above background fluorescence of tissue; uptake into the brain ([1]; brain used as background tissue): no uptake of the tracer into the brain |
